Results as given in patent publication US20230017045A1, “PYRIDINE AND PYRIMIDINE CARBOXYLATE HERBICIDES AND METHODS OF USE THEREOF” (Dow AgroSciences LLC, priority 2017, published 2023).
Read-outs that look alike come from different tables or passages of the source.

Tested on: test plant species
Assay: Post-emergent herbicidal activity test (greenhouse, foliar spray, visual growth reduction)
Type: in vivo
Settings: post-emergence, 336 h, 140 g ai/ha
Method in brief: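 Seedlings were raised 7-21 d in a greenhouse under a 15 h photoperiod until the first or second true leaf. Each compound, dissolved in acetone:DMSO 97:3 and diluted into a surfactant-containing spray mixture, was then applied at 187 L/ha. Plants were subirrigated, and growth reduction was scored visually at 14 d.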

[1] = ECHCG: barnyardgrass (Echinochloa crus-galli), 14 days after application, read-out: Visual Growth Reduction (%) 14 Days After Application, ECHCG
[2] = IPOHE: ivy-leaf morning glory (Ipomoea hederacea), 14 days after application, read-out: Visual Growth Reduction (%) 14 Days After Application, IPOHE
[3] = KCHSC: kochia (Bassia scoparia), 14 days after application, read-out: Visual Growth Reduction (%) 14 Days After Application, KCHSC
[4] = ORYSA: rice (Oryza sativa), 14 days after application, read-out: Visual Growth Reduction (%) 14 Days After Application, ORYSA
[5] = SETFA: giant foxtail (Setaria faberi), 14 days after application, read-out: Visual Growth Reduction (%) 14 Days After Application, SETFA
[6] = SORVU: grain sorghum (Sorghum vulgare), 14 days after application, read-out: Visual Growth Reduction (%) 14 Days After Application, SORVU
[7] = STEME: common chickweed (Stellaria media), 14 days after application, read-out: Visual Growth Reduction (%) 14 Days After Application, STEME
[8] = TRZAS: wheat, spring (Triticum aestivum), 14 days after application, read-out: Visual Growth Reduction (%) 14 Days After Application, TRZAS
[9] = blackgrass (Alopecurus myosuroides), 14 Days After Application, read-out: Visual Growth Reduction (%) ALOMY
[10] = canada thistle (Cirsium arvense), 14 Days After Application, read-out: Visual Growth Reduction (%) CIRAR
[11] = crabgrass (Digitaria sanguinalis), 14 Days After Application, read-out: Visual Growth Reduction (%) DIGSA
[12] = lambsquarters (Chenopodium album), 14 Days After Application, read-out: Visual Growth Reduction (%) CHEAL
[13] = redroot pigweed (Amaranthus retroflexus), 14 Days After Application, read-out: Visual Growth Reduction (%) AMARE
[14] = wild oat (Avena fatua), 14 Days After Application, read-out: Visual Growth Reduction (%) AVEFA
[15] = yellow nutsedge (Cyperus esculentus), 14 Days After Application, read-out: Visual Growth Reduction (%) CYPES
[16] = ALOMY: blackgrass (Alopecurus myosuroides), 14 days after application, read-out: Visual Growth Reduction (%) 14 Days After Application, ALOMY
[17] = AMARE: redroot pigweed (Amaranthus retroflexus), 14 days after application, read-out: Visual Growth Reduction (%) 14 Days After Application, AMARE
[18] = AVEFA: wild oat (Avena fatua), 14 days after application, read-out: Visual Growth Reduction (%) 14 Days After Application, AVEFA
[19] = CHEAL: lambsquarters (Chenopodium album), 14 days after application, read-out: Visual Growth Reduction (%) 14 Days After Application, CHEAL
[20] = CIRAR: canada thistle (Cirsium arvense), 14 days after application, read-out: Visual Growth Reduction (%) 14 Days After Application, CIRAR
[21] = CYPES: yellow nutsedge (Cyperus esculentus), 14 days after application, read-out: Visual Growth Reduction (%) 14 Days After Application, CYPES
[22] = DIGSA: crabgrass (Digitaria sanguinalis), 14 days after application, read-out: Visual Growth Reduction (%) 14 Days After Application, DIGSA

In the case of CCCOC(=O)c1nc(-c2ccc(Cl)c(OC)c2F)ccc1Cl [F286, Propyl 3-chloro-6-(4-chloro-2-fluoro-3-methoxyphenyl) picolinate], the pest or weed control at 140 g/ha [1] is reported as 0 to 29%, the pest or weed control at 140 g/ha [2] is reported as 60 to 74% and the pest or weed control at 140 g/ha [3] is reported as 60 to 74%. It also gave a pest or weed control at 140 g/ha [4] of 0 to 29%, a pest or weed control at 140 g/ha [5] of 0 to 29% and a pest or weed control at 140 g/ha [6] of 0 to 29%. The pest or weed control at 140 g/ha [7] was 0 to 29%, the pest or weed control at 140 g/ha [8] was 0 to 29% and the pest or weed control at 140 g/ha [9] was 0 to 29%. It also gave a pest or weed control at 140 g/ha [10] of 60 to 74%, a pest or weed control at 140 g/ha [11] of 0 to 29% and a pest or weed control at 140 g/ha [12] of 75 to 84%. It also gave a pest or weed control at 140 g/ha [13] of 0 to 29%, a pest or weed control at 140 g/ha [14] of 0 to 29% and a pest or weed control at 140 g/ha [15] of 0 to 29%.
COC(=O)c1nc(-c2cc(O)c(Cl)cc2F)ccc1Cl [F128, Methyl 3-chloro-6-(4-chloro-2-fluoro-5-hydroxyphenyl) picolinate] gave a pest or weed control at 140 g/ha [16] of 0 to 29%, a pest or weed control at 140 g/ha [17] of 0 to 29% and a pest or weed control at 140 g/ha [18] of 0 to 29%. It also gave a pest or weed control at 140 g/ha [19] of 0 to 29%, a pest or weed control at 140 g/ha [20] of 0 to 29% and a pest or weed control at 140 g/ha [21] of 0 to 29%. It also gave a pest or weed control at 140 g/ha [22] of 0 to 29%, a pest or weed control at 140 g/ha [1] of 0 to 29% and a pest or weed control at 140 g/ha [2] of 0 to 29%. The pest or weed control at 140 g/ha [3] was 0 to 29%, the pest or weed control at 140 g/ha [4] was 0 to 29% and the pest or weed control at 140 g/ha [5] was 0 to 29%. For the same compound, the pest or weed control at 140 g/ha [6] was 0 to 29%, the pest or weed control at 140 g/ha [7] was 0 to 29% and the pest or weed control at 140 g/ha [8] was 0 to 29%.
COC(=O)c1nc(-c2ccc(OS(=O)(=O)C(F)(F)F)cc2Cl)ccc1Cl [F364, methyl 3-chloro-6-(2-chloro-4-(((trifluoromethyl)sulfonyl)oxy)phenyl)picolinate] showed a pest or weed control at 140 g/ha [1] of 0 to 29%, a pest or weed control at 140 g/ha [2] of 85 to 94% and a pest or weed control at 140 g/ha [3] of 0 to 29%. For the same compound, the pest or weed control at 140 g/ha [4] was 0 to 29%, the pest or weed control at 140 g/ha [5] was 60 to 74% and the pest or weed control at 140 g/ha [6] was 85 to 94%. For the same compound, the pest or weed control at 140 g/ha [7] was 0 to 29%, the pest or weed control at 140 g/ha [8] was 0 to 29% and the pest or weed control at 140 g/ha [9] was 0 to 29%. For the same compound, the pest or weed control at 140 g/ha [10] was 60 to 74%, the pest or weed control at 140 g/ha [11] was 75 to 84% and the pest or weed control at 140 g/ha [12] was 75 to 84%. The pest or weed control at 140 g/ha [13] was 60 to 74%, the pest or weed control at 140 g/ha [14] was 0 to 29% and the pest or weed control at 140 g/ha [15] was 0 to 29%.
Compound COC(=O)c1nc(-c2ccc(OC(F)(F)F)cc2)c(F)cc1Cl [F185, Methyl 3-chloro-5-fluoro-6-(4-(trifluoromethoxy)phenyl)picolinate] has a pest or weed control at 140 g/ha [16] of 0 to 29%, a pest or weed control at 140 g/ha [17] of 0 to 29% and a pest or weed control at 140 g/ha [18] of 0 to 29%. For the same compound, the pest or weed control at 140 g/ha [19] was 45 to 59%, the pest or weed control at 140 g/ha [20] was 0 to 29% and the pest or weed control at 140 g/ha [21] was 0 to 29%. It also gave a pest or weed control at 140 g/ha [22] of 75 to 84%, a pest or weed control at 140 g/ha [1] of 0 to 29% and a pest or weed control at 140 g/ha [2] of 75 to 84%. For the same compound, the pest or weed control at 140 g/ha [3] was 0 to 29%, the pest or weed control at 140 g/ha [4] was 0 to 29% and the pest or weed control at 140 g/ha [5] was 30 to 44%. The pest or weed control at 140 g/ha [6] was 60 to 74%, the pest or weed control at 140 g/ha [7] was 0 to 29% and the pest or weed control at 140 g/ha [8] was 0 to 29%.
Compound COc1cc2c(cc1-c1ccc(Cl)c(C(=O)O)n1)OC(F)(F)O2 [F356, 3-Chloro-6-(2,2-difluoro-6-methoxybenzo[d][1,3]dioxol-5-yl)picolinic acid] has a pest or weed control at 140 g/ha [1] of 0 to 29%, a pest or weed control at 140 g/ha [2] of 95 to 100% and a pest or weed control at 140 g/ha [3] of 0 to 29%. For the same compound, the pest or weed control at 140 g/ha [4] was 0 to 29%, the pest or weed control at 140 g/ha [5] was 0 to 29% and the pest or weed control at 140 g/ha [6] was 30 to 44%. For the same compound, the pest or weed control at 140 g/ha [7] was 0 to 29%, the pest or weed control at 140 g/ha [8] was 0 to 29% and the pest or weed control at 140 g/ha [9] was 0 to 29%. It also gave a pest or weed control at 140 g/ha [10] of 0 to 29%, a pest or weed control at 140 g/ha [11] of 0 to 29% and a pest or weed control at 140 g/ha [12] of 60 to 74%. For the same compound, the pest or weed control at 140 g/ha [13] was 0 to 29%, the pest or weed control at 140 g/ha [14] was 0 to 29% and the pest or weed control at 140 g/ha [15] was 0 to 29%.
